One test deals with T1, TLR7 (Homo sapiens, UniProt Q9NYK1).
T1 construct: expressed in transfected cells; host or cells: HEK/293 cells carrying TLR7 and an NF-kB luciferase reporter
T1 sequence (Q9NYK1 27-1049): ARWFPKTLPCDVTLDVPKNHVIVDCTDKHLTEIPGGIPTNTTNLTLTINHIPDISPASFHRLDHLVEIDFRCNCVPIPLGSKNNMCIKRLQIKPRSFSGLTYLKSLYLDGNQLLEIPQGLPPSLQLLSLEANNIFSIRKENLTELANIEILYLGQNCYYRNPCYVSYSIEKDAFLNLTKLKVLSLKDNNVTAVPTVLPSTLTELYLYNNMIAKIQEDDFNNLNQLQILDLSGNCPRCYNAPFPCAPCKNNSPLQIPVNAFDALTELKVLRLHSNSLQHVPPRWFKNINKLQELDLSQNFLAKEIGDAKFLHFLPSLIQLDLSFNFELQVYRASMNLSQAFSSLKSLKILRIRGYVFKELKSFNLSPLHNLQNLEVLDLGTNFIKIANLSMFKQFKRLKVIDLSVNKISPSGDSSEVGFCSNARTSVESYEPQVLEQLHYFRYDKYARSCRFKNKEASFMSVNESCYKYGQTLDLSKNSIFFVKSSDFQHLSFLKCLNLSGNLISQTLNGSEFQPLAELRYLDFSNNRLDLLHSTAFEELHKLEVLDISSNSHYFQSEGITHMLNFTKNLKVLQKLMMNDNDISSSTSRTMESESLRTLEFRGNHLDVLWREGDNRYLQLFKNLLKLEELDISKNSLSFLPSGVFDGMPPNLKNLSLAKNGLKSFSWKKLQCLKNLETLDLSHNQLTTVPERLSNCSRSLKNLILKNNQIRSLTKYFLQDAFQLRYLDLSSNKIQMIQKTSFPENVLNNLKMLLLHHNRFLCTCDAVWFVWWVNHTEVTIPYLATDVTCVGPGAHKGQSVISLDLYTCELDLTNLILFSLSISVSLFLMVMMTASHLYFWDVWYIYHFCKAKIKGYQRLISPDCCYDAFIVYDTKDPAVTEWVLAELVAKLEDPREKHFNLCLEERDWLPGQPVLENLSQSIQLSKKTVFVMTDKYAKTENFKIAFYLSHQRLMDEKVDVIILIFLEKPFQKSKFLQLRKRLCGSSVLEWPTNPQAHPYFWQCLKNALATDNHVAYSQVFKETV
Kind of test: HEK/293 TLR7 Cell Assay. Format: cell-based. As to conditions: TLR7/NFKb HEK cells, R848 agonist 10 uM final concentration, Steady-Glo readout; read-out: TLR7 potency. In a few lines:
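Compounds added to HEK cells expressing TLR7 with an NFκB reporter 30 min ahead of 10 uM R848 challenge; luciferase signal (Steady-Glo) measured after 5 h, cells having been seeded 24 h earlier at 5000 per well.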

The target of another test is T2, TLR8 (Homo sapiens, UniProt Q9NR97).
T2 construct: expressed in transfected cells; host or cells: HEK/293 reporter cells (NF-kB luciferase)
T2 sequence (Q9NR97 27-1041): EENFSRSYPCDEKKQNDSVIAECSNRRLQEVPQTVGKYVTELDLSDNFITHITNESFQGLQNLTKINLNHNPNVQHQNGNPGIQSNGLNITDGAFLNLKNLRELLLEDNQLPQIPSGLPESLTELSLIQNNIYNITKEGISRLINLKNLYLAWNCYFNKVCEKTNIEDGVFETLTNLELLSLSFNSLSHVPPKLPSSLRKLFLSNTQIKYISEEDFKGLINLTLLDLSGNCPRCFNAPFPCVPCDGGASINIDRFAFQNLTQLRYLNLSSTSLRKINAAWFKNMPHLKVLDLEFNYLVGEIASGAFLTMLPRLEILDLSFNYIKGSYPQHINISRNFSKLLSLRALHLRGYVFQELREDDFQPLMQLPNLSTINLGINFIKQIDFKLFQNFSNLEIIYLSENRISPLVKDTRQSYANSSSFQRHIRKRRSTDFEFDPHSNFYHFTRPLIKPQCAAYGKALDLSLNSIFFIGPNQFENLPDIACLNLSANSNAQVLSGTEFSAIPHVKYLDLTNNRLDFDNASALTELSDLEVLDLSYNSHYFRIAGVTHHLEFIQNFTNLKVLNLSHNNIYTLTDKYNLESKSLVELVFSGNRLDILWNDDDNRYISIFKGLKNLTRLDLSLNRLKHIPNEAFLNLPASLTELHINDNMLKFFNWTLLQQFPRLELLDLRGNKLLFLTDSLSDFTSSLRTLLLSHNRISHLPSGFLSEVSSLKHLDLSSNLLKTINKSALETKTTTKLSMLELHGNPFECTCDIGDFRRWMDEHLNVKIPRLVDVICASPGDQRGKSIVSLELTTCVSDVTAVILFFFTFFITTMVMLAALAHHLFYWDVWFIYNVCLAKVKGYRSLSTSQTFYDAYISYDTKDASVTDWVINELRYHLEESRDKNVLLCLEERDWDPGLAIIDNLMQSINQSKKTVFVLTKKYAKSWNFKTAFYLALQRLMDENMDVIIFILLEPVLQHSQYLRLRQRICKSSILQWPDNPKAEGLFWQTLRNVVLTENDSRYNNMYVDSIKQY
Kind of test: HEK/293 TLR8 Cell Assay. Format: cell-based. The conditions noted are these: HEK cells, R848 agonist 30 uM final concentration, Steady-Glo readout; read-out: TLR8 potency.

Experimental findings from patent US20210300940A1 (Merck Patent GmbH, priority 2018, published 2021) are described below.

As to `C[C@H]1C[C@@H](NCC2(O)CCOCC2)CN(c2ccc(C#N)c3nccnc23)C1` [Example 14, 8-{(3R,5S)-3-[(4-Hydroxy-tetrahydro-pyran-4-ylmethyl)-amino]-5-methyl-piperidin-1-yl}-quinoxaline-5-carbonitrile], the IC50 at TLR7 and on TLR8 was less than 75 nM throughout.

On to `C[C@H]1C[C@@H](n2ccnn2)CN(c2ccc(C(F)(F)F)c3nccnc23)C1` (racemic) [Example 154, 5-[cis-3-methyl-5-(1H-1,2,3-triazol-1-yl)piperidin-1-yl]-8-(trifluoromethyl)quinoxaline], for which the IC50 on TLR7 was more than 150 nM; at TLR8, 75 to 150 nM.

`C[C@H]1CN(c2ccc(C#N)c3nccnc23)C[C@H](CN2CCN(C)CC2)O1` [Example 231, 8-[(2S,6S)-2-Methyl-6-(4-methyl-piperazin-1-ylmethyl)-morpholin-4-yl]-quinoxaline-5-carbonitrile]: the IC50 on TLR7 and at TLR8 was less than 75 nM throughout.

For the compound `C[C@H]1C[C@@H](NS(=O)(=O)NCCC2CCN(C)CC2)CN(c2ccc(C(F)(F)F)c3ncccc23)C1` [Example 201, N-[2-(1-methylpiperidin-4-yl)ethyl]{[(3R,5S)-5-methyl-1-[8-(trifluoromethyl)quinolin-5-yl]piperidin-3-yl]amino}sulfonamide], the IC50 on TLR7 and on TLR8 was less than 75 nM in each case.

Turning to `C[C@@H]1CN(c2ccc(C#N)c3ncncc23)C[C@H](CN2CCN(C)CC2)O1` [Example 224, 5-[(2R,6S)-2-Methyl-6-(4-methyl-piperazin-1-ylmethyl)-morpholin-4-yl]-quinazoline-8-carbonitrile], the IC50 is less than 75 nM on TLR7 and more than 150 nM on TLR8.

With `N#Cc1ncc(N2C[C@@H](C(F)(F)F)O[C@@H](C(=O)NC[C@]3(F)CCNC3)C2)c2cccnc12` (single isomer, unassigned) [Example 320], the IC50 at TLR7 and at TLR8 was more than 150 nM throughout.

Turning to `C[C@@H]1CN(c2cnc(C(F)(F)F)c3ncccc23)C[C@H](CO)O1` [Example 383, [(2R,6R)-6-Methyl-4-(8-trifluoromethyl-[1,7]naphthyridin-5-yl)-morpholin-2-yl]-methanol], the IC50 on TLR7 and at TLR8 was more than 150 nM in each case.

`CC(C)[C@H](O)C(=O)N[C@@H]1C[C@H](C)CN(c2cnc(C#N)c3nccnc23)C1` [Example 196, (S)—N-[(3R,5S)-1-(5-Cyano-pyrido[3,4-b]pyrazin-8-yl)-5-methyl-piperidin-3-yl]-2-hydroxy-3-methyl-butyramide]: the IC50 at TLR7 is more than 150 nM; on TLR8, less than 75 nM.

Turning to `C[C@H]1C[C@@H](NC(=O)CCN(C)C)CN(c2ccc(C(F)(F)F)c3ncccc23)C1` [Example 186, 3-Dimethylamino-N-[(3R,5S)-5-methyl-1-(8-trifluoromethyl-quinolin-5-yl)-piperidin-3-yl]-propionamide], the IC50 at TLR7 and at TLR8 was less than 75 nM each time.

Regarding `C[C@@H](O)CNC(=O)[C@@H]1CN(c2ccc(C#N)c3nccnc23)C[C@H](C(F)(F)F)O1` (single isomer, unassigned) [Example 279], the IC50 on TLR7 is 75 to 150 nM; on TLR8, more than 150 nM.

For `C[C@@H]1CN(c2ccc(C#N)c3nccnc23)C[C@H](C(=O)NC[C@H](O)CN(C)C)O1` (single isomer, unassigned) [Example 261], the IC50 on TLR7 and at TLR8 was less than 75 nM in each case.

With `C[C@@H]1CN(c2cnc(C#N)c3ncccc23)C[C@H](CNC(=O)[C@]2(F)CCN(C)C2)O1` (single isomer, unassigned) [Example 335], the values for the IC50 on TLR7 and at TLR8 were 75 to 150 nM and less than 75 nM, respectively.

As for `C[C@@H]1CN(c2cnc(C#N)c3ncccc23)C[C@H](CNC(=O)[C@]2(F)CCNC2)O1` (single isomer, unassigned) [Example 337], the IC50 on TLR7 and on TLR8 was less than 75 nM in each case.

Take `C[C@@H]1CN(c2cnc(C#N)c3ncccc23)C[C@H](CNC(=O)[C@@]2(F)CCCNC2)O1` (single isomer, unassigned) [Example 338]: the IC50 at TLR7 and on TLR8 was less than 75 nM throughout.

For the compound `Cc1c(F)cc(N2C[C@H](NC(=O)[C@@H]3CCCN3)C[C@H](C(F)(F)F)C2)c2cccnc12` [Example 115, (2S)—N-[(3R,5S)-1-(7-fluoro-8-methylquinolin-5-yl)-5-(trifluoromethyl)piperidin-3-yl]pyrrolidine-2-carboxamide], the figures for the IC50 at TLR7 and at TLR8 were more than 150 nM and less than 75 nM, respectively.

Regarding `N#Cc1ccc(N2C[C@H](NC(=O)[C@@H]3CCCN3)C[C@H](C(F)(F)F)C2)c2cccnc12` [Example 125, (2S)—N-[(3R,5S)-1-(8-cyanoquinolin-5-yl)-5-(trifluoromethyl)piperidin-3-yl]pyrrolidine-2-carboxamide], the IC50 on TLR7 and at TLR8 was less than 75 nM each time.

On to `C[C@H]1C[C@@H](NCCNS(C)(=O)=O)CN(c2ccc(C#N)c3nccnc23)C1` [Example 41, N-{2-[(3R,5S)-1-(8-Cyano-quinoxalin-5-yl)-5-methyl-piperidin-3-ylamino]-ethyl}-methanesulfonamide], for which the IC50 on TLR7 and at TLR8 was less than 75 nM throughout.

Regarding `C[C@@H]1CN(c2ccc(C#N)c3nccnc23)C[C@H](CNC(=O)[C@H](C)O)O1` (single isomer, unassigned) [Example 341], the IC50 on TLR7 is more than 150 nM; on TLR8 it was less than 75 nM.

As for `C[C@@H]1CN(c2ccc(C#N)c3nccnc23)C[C@H](C(=O)NCCC2CS(=O)(=O)C2)O1` [Example 259, (2R,6R)-4-(8-cyanoquinoxalin-5-yl)-N-[2-(1,1-dioxo-1λ^6-thietan-3-yl)ethyl]-6-methylmorpholine-2-carboxamide], the IC50 on TLR7 was less than 75 nM; on TLR8 it was more than 150 nM.

As to `C[C@@H]1CN(c2cnc(C#N)c3ncccc23)C[C@H](C(=O)NCC2(F)CNC2)O1` [Example 301, (2R,6R)-4-(8-Cyano-[1,7]naphthyridin-5-yl)-6-methyl-morpholine-2-carboxylic acid (3-fluoro-azetidin-3-ylmethyl)-amide], the IC50 at TLR7 and on TLR8 was less than 75 nM in each case.

Consider `C[C@@H]1CN(c2ccc(C#N)c3ncncc23)C[C@H](CNC(=O)C2(F)CCNC2)O1` (stereo partly drawn) [Example 343, N-{[(2S,6R)-4-(8-cyanoquinazolin-5-yl)-6-methylmorpholin-2-yl]methyl}-3-fluoropyrrolidine-3-carboxamide], for which the IC50 at TLR7 and at TLR8 was less than 75 nM in each case.

For the compound `C[C@@H]1CN(c2cnc(C(F)(F)F)c3ncccc23)C[C@H](CNC[C@@H]2CN(C)CCO2)O1` (single isomer, unassigned) [Example 386], the IC50 at TLR7 was more than 150 nM; at TLR8 it was less than 75 nM.
